Reference: ChEMBL document CHEMBL1166016, “Design, synthesis, and biological evaluation of novel coxsackievirus B3 inhibitors” (Bioorg Med Chem, 2010)

Columns and labels:
[1] = Cytotoxicity against african green monkey Vero cells after 3 days by MTS assay; type: cell-based; details: chlorocebus sabaeus
Coxsackievirus B3 = test: Antiviral activity against Coxsackievirus B3 infected in african green monkey […] assessed as inhibition of virus-induced cytopathic effect after 3 days by MTS assay; type: functional, organism-based; details: for EC50: Enterovirus B, 72 h

| Structure (SMILES) | CC50 at 72 h [1] | EC50 (Coxsackievirus B3) | EC90 (Coxsackievirus B3) |
| --- | --- | --- | --- |
| Clc1ncnc2c1ncn2[C@H]1C[C@H]2C[C@@H]1[C@@H]1CCC[C@H]21 (relative stereo) | 43.4 µM | 1.9 µM | – |
| CC1(C)[C@H]2CC[C@H](C2)[C@@H]1n1cnc2c(Cl)ncnc21 (relative stereo) | > 50 µM | 10.9 µM | >50 µM |
| Clc1ncnc2c1ncn2[C@H]1C[C@H]2C[C@@H]1c1ccccc12 (relative stereo) | > 50 µM | 0.66 µM | >50 µM |
| Clc1ncnc2c1ncn2C[C@@H]1C[C@H]2CC[C@@H]1C2 (relative stereo) | > 50 µM | 3.83 µM | 9.43 µM |
| Clc1ncnc2c1ncn2[C@H]1C2C3C[C@H]1C[C@H]32 (relative stereo) | 43.9 µM | 1.52 µM | – |
| Clc1ncnc2c1ncn2[C@@H]1[C@@H]2C[C@@H]3[C@H]1CO[C@@H]3C2 (relative stereo) | > 50 µM | 1 µM | – |
| O=C1C[C@@H]2C[C@H]1[C@H](n1cnc3c(Cl)ncnc31)C2 (relative stereo) | > 50 µM | 1.57 µM | – |
| CC1(C)[C@@H]2CC[C@@]1(C)[C@H](n1cnc3c(Cl)ncnc31)C2 (relative stereo) | > 50 µM | 3.47 µM | 36.26 µM |
| FC1(F)C[C@@H]2C[C@@H](n3cnc4c(Cl)ncnc43)[C@H]1C2 (relative stereo) | > 50 µM | 1.16 µM | 34.4 µM |
| Clc1ncnc2c1ncn2[C@H]1C[C@H]2C[C@@H]1C[C@@H]2c1ccccc1 (relative stereo) | 17 µM | 5.72 µM | – |
| Clc1ncnc2c1ncn2[C@H]1C[C@H]2C[C@@H]1C[C@@H]2n1cnc2c(Cl)ncnc21 (relative stereo) | > 50 µM | 22.5 µM | – |
| C[C@@H](NC(=O)c1cccc(-c2cnc(-c3cc4ccccc4cn3)[nH]2)c1)c1ccc(F)cc1 | > 50 µM | 1.2 µM | – |
| O[C@@H]1[C@@H]2C[C@H]([C@@H]1O)[C@@H](n1cnc3c(Cl)ncnc31)C2 (relative stereo) | > 50 µM | 2.26 µM | 36.52 µM |
| O[C@H]1C[C@@H]2C[C@@H]1C[C@H]2n1cnc2c(Cl)ncnc21 (relative stereo) | > 50 µM | 1.05 µM | – |
| OCC1C2COC3C2OC1C3n1cnc2c(Cl)ncnc21 (stereo not drawn) | > 50 µM | 1.86 µM | – |
| ClCC1C2COC3C2CC1C3n1cnc2c(Cl)ncnc21 (stereo not drawn) | > 50 µM | 1 µM | – |
| F[C@H]1C[C@H]2C[C@@H]1C[C@@H]2n1cnc2c(Cl)ncnc21 (relative stereo) | > 50 µM | 0.95 µM | 1.96 µM |

| Structure (SMILES) | CC50 at 72 h [1] | EC50 (Coxsackievirus B3) | EC90 (Coxsackievirus B3) |
| --- | --- | --- | --- |
| Clc1ncnc2c1ncn2[C@@H]1C[C@@H]2C[C@H]1[C@@H]1O[C@@H]21 (relative stereo) | > 50 µM | 1.03 µM | 3.46 µM |
| O[C@@H]1C[C@H]2C[C@@H]1[C@@H](n1cnc3c(Cl)ncnc31)C2 (relative stereo) | 47.9 µM | 1.1 µM | – |
| O[C@H]1C[C@H]2C[C@@H]1C[C@@H]2n1cnc2c(Cl)ncnc21 (relative stereo) | > 50 µM | 2.44 µM | – |
| OCC1CC2CC1C(n1cnc3c(Cl)ncnc31)C2 (stereo not drawn) | > 50 µM | 0.98 µM | – |
| ClCC1C2COC3C2OC1C3n1cnc2c(Cl)ncnc21 (stereo not drawn) | > 50 µM | 0.88 µM | – |
| OCC1CC2CC1CC2n1cnc2c(Cl)ncnc21 (stereo not drawn) | > 50 µM | 0.91 µM | – |
| FC1(F)C[C@H]2C[C@H]1C[C@@H]2n1cnc2c(Cl)ncnc21 (relative stereo) | > 50 µM | 1 µM | – |
| Clc1ncnc2c1ncn2[C@@H]1CC2CC1[C@@H](n1cnc3c(Cl)ncnc31)C2 | > 50 µM | 7.83 µM | – |
| O=C1C[C@H]2C[C@@H]1C[C@@H]2n1cnc2c(Cl)ncnc21 (relative stereo) | > 50 µM | 0.9 µM | 1.78 µM |
| OCC1C2COC3C2CC1C3n1cnc2c(Cl)ncnc21 (stereo not drawn) | > 50 µM | 1.13 µM | – |
| O[C@@H]1C[C@H]2C[C@@H]1[C@H](n1cnc3c(Cl)ncnc31)C2 (relative stereo) | > 50 µM | 1.3 µM | – |
| Clc1ncnc2c1ncn2[C@H]1C[C@H]2C[C@@H]1[C@H](c1ccccc1)C2 (relative stereo) | 13.4 µM | 2.98 µM | – |
| Clc1ncnc2c1ncn2[C@H]1[C@@H]2C[C@@H]3CO[C@H]1[C@H]3C2 (relative stereo) | > 50 µM | 1.27 µM | – |
| Clc1ncnc2c1ncn2[C@H]1C[C@H]2C[C@@H]1c1cc3ccccc3cc12 (relative stereo) | > 50 µM | > 50 µM | >50 µM |
| Clc1ncnc2c1ncn2C[C@H]1C[C@@H]2C=C[C@H]1C2 (relative stereo) | > 50 µM | 3.58 µM | 8.49 µM |
| Clc1ncnc2c1ncn2[C@H]1C[C@@H]2C=C[C@H]1C2 (relative stereo) | > 50 µM | 2.43 µM | 5.87 µM |
